Laboratory results as given in PubChem BioAssay (NCI).
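Step 1: Grow cells in 96-well plates. Step 2: Expose to compound for 48 hours at 5 concentrations. Step 3: Interpolate endpoints linearly; if unreached, use highest concentration. TGI denotes the concentration required for complete inhibition of growth.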

Experiments:
Assay in all cases: DTP human tumour cell line panel, 48 h
NCI/ADR-RES ovarian = test system: NCI/ADR-RES ovarian
T-47D breast = test system: T-47D breast
PC-3 prostate = test system: PC-3 prostate
A549 NSCLC = test system: A549 NSCLC
OVCAR-3 ovarian = test system: OVCAR-3 ovarian
NCI-H23 lung = test system: NCI-H23 lung
IGROV1 ovarian = test system: IGROV1 ovarian
SK-MEL-2 melanoma = test system: SK-MEL-2 melanoma
KM12 colon = test system: KM12 colon
U251 CNS = test system: U251 CNS
CCRF-CEM leukemia = test system: CCRF-CEM leukemia
SK-MEL-5 melanoma = test system: SK-MEL-5 melanoma
OVCAR-8 ovarian = test system: OVCAR-8 ovarian
HT29 colon = test system: HT29 colon
OVCAR-5 ovarian = test system: OVCAR-5 ovarian
SN12C renal = test system: SN12C renal
NCI-H460 lung = test system: NCI-H460 lung
MDA-MB-435 = test system: MDA-MB-435
M14 melanoma = test system: M14 melanoma
SNB-75 CNS = test system: SNB-75 CNS
HCT-15 colon = test system: HCT-15 colon
HCC-2998 colon = test system: HCC-2998 colon
MDA-N = test system: MDA-N
A498 renal = test system: A498 renal
MDA-MB-231 breast = test system: MDA-MB-231 breast
HOP-62 NSCLC = test system: HOP-62 NSCLC
786-0 renal = test system: 786-0 renal
EKVX NSCLC = test system: EKVX NSCLC
SNB-19 CNS = test system: SNB-19 CNS
OVCAR-4 ovarian = test system: OVCAR-4 ovarian
HCT-116 colon = test system: HCT-116 colon
UACC-257 melanoma = test system: UACC-257 melanoma
RPMI-8226 leukemia = test system: RPMI-8226 leukemia
SR leukemia = test system: SR leukemia
MOLT-4 leukemia = test system: MOLT-4 leukemia
ACHN renal = test system: ACHN renal
UACC-62 melanoma = test system: UACC-62 melanoma
TK-10 renal = test system: TK-10 renal
NCI-H522 lung = test system: NCI-H522 lung
SF-539 CNS = test system: SF-539 CNS
HL-60(TB) leukemia = test system: HL-60(TB) leukemia
MALME-3M melanoma = test system: MALME-3M melanoma
HOP-92 NSCLC = test system: HOP-92 NSCLC
NCI-H226 lung = test system: NCI-H226 lung
UO-31 renal = test system: UO-31 renal
BT-549 breast = test system: BT-549 breast
SK-OV-3 ovarian = test system: SK-OV-3 ovarian
SK-MEL-28 melanoma = test system: SK-MEL-28 melanoma
DU-145 prostate = test system: DU-145 prostate
COLO 205 colon = test system: COLO 205 colon
K-562 leukemia = test system: K-562 leukemia
RXF 393 renal = test system: RXF 393 renal
MCF7 breast = test system: MCF7 breast
HS 578T breast = test system: HS 578T breast
SF-295 CNS = test system: SF-295 CNS
LOX IMVI melanoma = test system: LOX IMVI melanoma
SW-620 colon = test system: SW-620 colon
SF-268 CNS = test system: SF-268 CNS
CAKI-1 renal = test system: CAKI-1 renal

For `CC(C)CNC(=O)c1c(NC(=O)c2ccccc2)sc2[nH]c(=O)n(-c3ccccc3)c(=O)c12`, the TGI (NCI/ADR-RES ovarian) was > 100 µM, the TGI (T-47D breast) was > 100 µM and the TGI (PC-3 prostate) was > 100 µM. For the same compound, the TGI (A549 NSCLC) was > 100 µM, the TGI (OVCAR-3 ovarian) was > 100 µM and the TGI (NCI-H23 lung) was > 100 µM. For the same compound, the TGI (IGROV1 ovarian) was > 100 µM, the TGI (SK-MEL-2 melanoma) was 68.6 µM and the TGI (KM12 colon) was > 100 µM. For the same compound, the TGI (U251 CNS) was > 100 µM, the TGI (CCRF-CEM leukemia) was > 89.6 µM and the TGI (SK-MEL-5 melanoma) was > 100 µM. For the same compound, the TGI (OVCAR-8 ovarian) was > 100 µM, the TGI (HT29 colon) was > 100 µM and the TGI (OVCAR-5 ovarian) was > 100 µM. The TGI (SN12C renal) was > 100 µM, the TGI (NCI-H460 lung) was > 100 µM and the TGI (MDA-MB-435) was > 100 µM. The TGI (M14 melanoma) was > 100 µM, the TGI (SNB-75 CNS) was 48.3 µM and the TGI (HCT-15 colon) was > 100 µM. For the same compound, the TGI (HCC-2998 colon) was > 100 µM, the TGI (MDA-N) was > 100 µM and the TGI (A498 renal) was > 71.2 µM. The TGI (MDA-MB-231 breast) was 52.6 µM, the TGI (HOP-62 NSCLC) was 49.1 µM and the TGI (786-0 renal) was 53.6 µM. The TGI (EKVX NSCLC) was > 100 µM, the TGI (SNB-19 CNS) was 75.8 µM and the TGI (OVCAR-4 ovarian) was > 100 µM. The TGI (HCT-116 colon) was > 100 µM, the TGI (UACC-257 melanoma) was > 100 µM and the TGI (RPMI-8226 leukemia) was > 100 µM. The TGI (SR leukemia) was > 90.7 µM, the TGI (MOLT-4 leukemia) was > 100 µM and the TGI (ACHN renal) was 61 µM. The TGI (UACC-62 melanoma) was > 100 µM, the TGI (TK-10 renal) was 75 µM and the TGI (NCI-H522 lung) was > 100 µM. For the same compound, the TGI (SF-539 CNS) was > 84 µM, the TGI (HL-60(TB) leukemia) was > 100 µM and the TGI (MALME-3M melanoma) was > 100 µM. The TGI (HOP-92 NSCLC) was 19.7 µM, the TGI (NCI-H226 lung) was > 100 µM and the TGI (UO-31 renal) was > 100 µM. For the same compound, the TGI (BT-549 breast) was 77.4 µM, the TGI (SK-OV-3 ovarian) was > 81.2 µM and the TGI (SK-MEL-28 melanoma) was > 100 µM. For the same compound, the TGI (DU-145 prostate) was > 100 µM, the TGI (COLO 205 colon) was > 100 µM and the TGI (K-562 leukemia) was > 86.9 µM. The TGI (RXF 393 renal) was 40 µM, the TGI (MCF7 breast) was > 100 µM and the TGI (HS 578T breast) was > 79.1 µM. The TGI (SF-295 CNS) was 67.1 µM, the TGI (LOX IMVI melanoma) was > 100 µM and the TGI (SW-620 colon) was > 100 µM. For the same compound, the TGI (SF-268 CNS) was > 100 µM and the TGI (CAKI-1 renal) was > 80.9 µM.
